Patent US12215118B2, “Quinone methide analog signal amplification” (Ventana Medical Systems, Inc., priority 2014, dated 2025)

What was measured:
[1] = system: Bcl2 on FFPE tonsil tissue; assay: HRP DAB amplified by QMP-biotin with different linkers; details: 100 nM, CHES pH 10.0, different linkers
Description: The tissue was deparaffinized and retrieved as described in the general procedures. Mouse-anti-Bcl-2 antibody incubation (37° C., 16 minutes) and washing were followed by secondary antibody incubation with a goat polyclonal anti-mouse antibody conjugated to AP (37° C.; 12 minutes). After incubating with the AP conjugate the slides were washed with Special Stains wash. Monofluoro QMP-biotin (with aniline amide (FIG. 23(A)), benzoic amide (FIG. 23(B)) or tyramide amide linker (FIG. 23(C)) (100 nM) was dissolved in 100 mM CHES, pH 10.0, 0.05% Brij-35 to a final concentration of 100 nM. QMP turnover was achieved by adding 100 μL of AP Enhancer followed by 100 μL of biotin labeled QMP and incubating at 37° C. for 16 minutes. The deposited biotin was subsequently bound by a streptavidin-HRP conjugate (37° C.; 8 minutes), and visualized via a brown precipitate produced by HRP upon the addition of hydrogen peroxide and DAB (37° C.; 8 minutes). The DAB was toned by the addition of copper sulfate (37° C.; 4 minutes). The stained tissue sections were counterstained with modified Mayer's hematoxylin (37° C.; 4 minutes) and then incubated with Bluing Reagent (37° C.; 4 minutes). They were then dehydrated through a graded ethanol series, cleared with xylene, and manually cover-slipped.

[2] = system: BCL6 on FFPE tonsil tissue; assay: AP-based CARD IHC with biotinylated QM precursor followed by DAB detection
Description: Detection 1—HRP DAB. After incubating with the AP conjugate the slides were washed with Special Stains wash (VMSI #860-015). QMP reagents were dissolved in 100 mM CHES (3-cyclo-hexylamino-ethylsulfonic acid), pH 10.0, 0.05% Brij-35. QMP turnover was achieved by adding 100 μL of AP Enhancer (VMSI #253-2182) followed by 100 μL of hapten labeled QMP and incubating at 37° C. for 16 minutes. Compound 29 is an exemplary hapten-QMP that could be used according to this method. The deposited hapten was subsequently bound by a mouse-anti-hapten-HRP conjugate (or streptavidin-HRP) (37° C.; 8 minutes), and visualized via a brown precipitate produced by HRP upon the addition of hydrogen peroxide and DAB (37° C.; 8 minutes). The DAB was toned by the addition of copper sulfate (37° C.; 4 minutes). The stained tissue sections were counterstained with modified Mayer's hematoxylin (Hematoxylin II, VMSI #790-2208) (37° C.; 4 minutes) and then incubated with Bluing Reagent (VMSI #760-2037) (37° C.; 4 minutes). The slides were then dehydrated through a graded ethanol series, cleared with xylene, and manually cover-slipped.
Both compounds utilize fluoride as the leaving group, but the reactivity of the QM derived from difluoro compound 58 should be considerably lower than monofluoro 7 due to the electronic stabilization offered by the geminal fluorine atom. […] Therefore, the difluoro QM precursor compound 58 was evaluated first for IHC staining performance on FFPE tissue using the nuclear marker BCL6 on FFPE tonsil tissue as a model system. The biotin-labeled difluoro QM precursor successfully bound to the sample as evidenced by subsequent biotin visualization using diaminobenzidine (DAB) detection. FIG. 18 provides microphotographs illustrating the detection level at varying concentrations of the difluoro QM precursor in a Tris buffer at pH=8.5 (panel A—DAB control, panel B—1 μM, panel C—10 μM and panel D—20 μM). In addition, significant amplification of signal was observed compared to the DAB control sample when on-slide concentrations of difluoro QM precursor compound 58 greater than […] were utilized.
To test the effect of pH on signal diffusion, difluoro QM precursor compound 58 was deposited as before at various pH levels within the working range for AP (7-12 with two shoulders of maximal activity at pH=8.5 and 11). The nuclear marker BCL6 on FFPE tonsil tissue was again chosen as the model. Positive staining was observed across the entire pH range, although a balance between overall signal and diffusion was seen. FIG. 19, panels A-H provide microphotographs of the detection levels of 20 µM QM precursor in Tris buffer with varying pH: panel A—DAB control; panel B pH=7.0; panel C pH=8.0; panel D pH=8.5; panel E pH=9.0; panel F pH=10.0; panel G pH=11.0; panel H pH=12.0. The diffusion appears to decrease with increasing pH. […] The level of amplification increased only as the pH rose to 8.5 and then decreased gradually over the rest of the range. This effect may be due to a combination of enzyme activity and the population of QM quenchers in the reaction media. At pH levels well below the optimal AP reaction conditions (7.0), the activity of AP was depressed, resulting in low signal. As the pH increased (8.0-8.5) but remained near the pKa of Tris (8.1), the activity of AP increased at a faster rate than the population of quenchers in the reaction media, leading to a significant increase in signal. Raising the pH further (9-10) increased the quencher population while decreasing AP activity, resulting in a decrease of signal. Although AP had maximal activity at pH 11 in Tris, a slight decrease in staining intensity was observed, most likely due to the excessively high population of quenchers that could not be overcome by the increased AP activity (raising the pH from 8.5 to 11 increases [Tris base] about 50%, with AP activity increasing by only about 20%). […]

[3] = system: alkaline phosphatase (AP); assay: Trapping of the QM intermediate with Tris in solution, HPLC-MS; type: biochemical; details: pH 10 Tris buffer
Description: To probe the mechanism of staining and quenching, an attempt was made to trap the QM intermediate formed by monofluoro QM precursor 7 in solution-phase under similar conditions to those utilized in the staining experiments (FIG. 26). QM precursor 7 was dissolved in pH 10 Tris buffer followed by addition of a catalytic amount of AP. The reaction progress was monitored by HPLC-MS (FIG. 27, panels A-C). Within 10 minutes, complete conversion to the Tris adduct 7-tris was observed (panel C).

O=C(CCCCC1SCC2NC(=O)NC21)NCCCCCC(=O)Nc1ccc(OP(=O)(O)O)c(CF)c1 (stereo not shown) [Compound 7, 2-(fluoromethyl)-4-(6-(5-(2-oxohexahydro-1H-thieno[3,4-d]imidazol-4-yl)pentanamido)hexanamido)phenyl dihydrogen phosphate]
signal resolution [1]: well resolved signals
diffusion and off-target staining ([2]; 250 nM, Tris buffer, pH of 10): nearly eliminated
concentration required to give the desired level of amplification ([2]; pH 8.5 in Tris buffer): 250 nM
overall diffusion compared to difluoro QM precursor 58 ([2]; pH 8.5 in Tris buffer): greatly reduced
time to complete conversion to the Tris adduct ([3]; catalytic amount of AP): ≤ 10 min
reaction in the absence of AP ([3]; no AP): no reaction took place

O=C(CCCCC1SCC2NC(=O)NC21)NCCCCCNC(=O)c1ccc(OP(=O)(O)O)c(CF)c1 (stereo not shown) [Compound 21, 2-(fluoromethyl)-4-((5-(5-(2-oxohexahydro-1H-thieno[3,4-d]imidazol-4-yl)pentanamido)pentyl)carbamoyl)phenyl dihydrogen phosphate]
signal resolution [1]: more diffuse, less resolved signal
